Assays:
Type in all cases: cell-based
[1] = system: Human dermal fibroblasts from Friedreich's Ataxia patients; experiment: Rescue of BSO-stressed FRDA fibroblasts (Example A); conditions: FRDA fibroblasts GM04078, 1 mM BSO, read-out: protection against FRDA, EC50
Experimental: Test samples, 4 reference compounds (idebenone, decylubiquinone, Trolox and α-tocopherol acetate), and solvent controls were tested for their ability to rescue FRDA fibroblasts stressed by addition of L-buthionine (S,R)-sulfoximine (BSO), as described in Jauslin et al., Hum. Mol. Genet. […] Mol. Genet. […] This specific BSO-mediated cell death can be prevented by administration of antioxidants or molecules involved in the antioxidant pathway, such as α-tocopherol, selenium, or small molecule glutathione peroxidase mimetics. However, antioxidants differ in their potency, i.e. the concentration at which they are able to rescue BSO-stressed FRDA fibroblasts.
Fetal Calf Serum was obtained from PAA Laboratories. Basic fibroblast growth factor and epidermal growth factor were purchased from PeproTech. Penicillin-streptomycin-glutamine mix, L-buthionine (S,R)-sulfoximine, (+)-α-tocopherol acetate, decylubiquinone, and insulin from bovine pancreas were purchased from Sigma. Trolox (6-Hydroxy-2,5,7,8-tetramethylchroman-2-carboxylic acid) was obtained from Fluka. Idebenone was obtained from Chemo Iberica. Calcein AM was purchased from Molecular Probes. Cell culture medium was made by combining 125 ml M199 EBS, 50 ml Fetal Calf Serum, 100 U/ml penicillin, 100 μg/ml streptomycin, 2 mM glutamine, 10 μg/ml insulin, 10 ng/ml EGF, and 10 ng/ml bFGF; MEM EBS was added to make the volume up to 500 ml. […] During the course of the experiments, this solution was stored at +4° C. The cells were obtained from the Coriell Cell Repositories (Camden, NJ; repository number GM04078) and grown in 10 cm tissue culture plates. Every third day, they were split at a 1:3 ratio.
The test samples were supplied in 1.5 ml glass vials. […] Once dissolved, they were stored at −20° C. Reference antioxidants (idebenone, decylubiquinone, α-tocopherol acetate and trolox) were dissolved in DMSO.
Test samples were screened according to the following protocol: A culture with FRDA fibroblasts was started from a 1 ml vial with approximately 500,000 cells stored in liquid nitrogen. […] Once confluent, fibroblasts were harvested. […] The remaining cells were distributed in 10 cm cell culture plates (500,000 cells/plate) for propagation. The plates were incubated overnight at 37° C. in a atmosphere with 95% humidity and 5% CO2 to allow attachment of the cells to the culture plate.
MTP medium (243 μl) was added to a well of the microtiter plate. […] Serial dilutions from the master solution were made. The period between the single dilution steps was kept as short as possible (generally less than 1 second).
Plates were kept overnight in the cell culture incubator. The next day, 10 μl of a 10 mM BSO solution were added to the wells, resulting in a 1 mM final BSO concentration. Forty-eight hours later, three plates were examined under a phase-contrast microscope to verify that the cells in the 0% control (wells E1-H1) were clearly dead. The medium from all plates was discarded, and the remaining liquid was removed by gently tapping the plate inversed onto a paper towel.
The plates were incubated for 50-70 minutes at room temperature. After that time the PBS was discarded, the plate gently tapped on a paper towel and fluorescence (excitation/emission wavelengths of 485 nm and 525 nm, respectively) was read on a Gemini fluorescence reader. Data was imported into Microsoft Excel (EXCEL is a registered trademark of Microsoft Corporation for a spreadsheet program) and used to calculate the EC50 concentration for each compound.
The compounds were tested three times, i.e., the experiment was performed three times, the passage number of the cells increasing by one with every repetition.
The viability of non-BSO treated fibroblasts was set as 100%, and the viability of the BSO- and compound-treated cells was calculated as relative to this value.

[2] = system: human dermal fibroblasts from Huntington's patients; experiment: Rescue of BSO-stressed fibroblasts from Huntington's patients (Example B); conditions: Fibroblast, Huntington's fibroblasts GM 04281, screen as Example A, read-out: protection against Hungtington's, EC50
Experimental: The compounds were tested for their ability to rescue human dermal fibroblasts from Huntington's patients from oxidative stress.

[3] = system: human dermal fibroblasts from LHON patients; experiment: Rescue of BSO-stressed fibroblasts from LHON patients (Example C); conditions: Fibroblast, LHON fibroblasts GM03858, screen as Example A, read-out: protection against LHON, EC50
Experimental: The compounds were tested for their ability to rescue human dermal fibroblasts from LHON patients from oxidative stress.

[4] = system: human dermal fibroblasts from Parkinson's Disease patients; experiment: Rescue of BSO-stressed fibroblasts from Parkinson's Disease patients (Example D); conditions: Fibroblast, PD fibroblasts AG20439, screen as Example A, read-out: protection against PD, EC50
Experimental: The compounds were tested for their ability to rescue human dermal fibroblasts from Parkinson's Disease patients from oxidative stress.

[5] = system: human dermal fibroblasts from CoQ10 deficient patients; experiment: Rescue of stressed fibroblasts from CoQ10 deficient patients (Example E); conditions: Fibroblast, fibroblasts harboring a CoQ2 mutation, screen similar to Example A, read-out: protection against CoQ10 deficiency, EC50
Experimental: Compounds of the invention were tested using a screen similar to the one described in Example A, but substituting FRDA cells with cells obtained from CoQ10 deficient patients harboring a CoQ2 mutation.

Measured: EC50

CC1=C(C)C(=O)C(CCC(C)(O)C(=O)N2CCN(Cc3ccccc3)CC2)=C(C)C1=O (stereo not shown) [Example 15, 2-(4-(4-Benzylpiperazin-1-yl)-3-hydroxy-3-methyl-4-oxobutyl)-3,5,6-trimethylcyclohexa-2,5-diene-1,4-dione]
not listed: [5]
< 0.1 µM: all other assays above

CC1=C(C)C(=O)C(CCC(C)(O)C(=O)NCCO)=C(C)C1=O (stereo not shown) [Example 20, 2-Hydroxy-N-(2-hydroxyethyl)-2-methyl-4-(2,4,5-trimethyl-3,6-dioxocyclohexa-1,4-dienyl)butanamide]
< 0.1 µM: all assays above

CC1=C(C)C(=O)C(CCC(C)(O)C(=O)NCCOCCO)=C(C)C1=O (stereo not shown) [Example 25, 2-Hydroxy-N-(2-(2-hydroxyethoxy)ethyl)-2-methyl-4-(2,4,5-trimethyl-3,6-dioxocyclohexa-1,4-dienyl)butanamide]
not listed: [5]
< 0.1 µM: all other assays above

CC1=C(C)C(=O)C(CC[C@](C)(O)C(=O)NCCO)=C(C)C1=O [Example 28, (S)-2-hydroxy-N-(2-hydroxyethyl)-2-methyl-4-(2,4,5-trimethyl-3,6-dioxocyclohexa-1,4-dienyl)butanamide]
< 0.1 µM: [1] | [2] | [4]

CC1=C(C)C(=O)C(CCC(C)(O)C(=O)NCCc2ccc(O)cc2)=C(C)C1=O (stereo not shown) [Example 36, N-(4-Hydroxyphenethyl)-2-hydroxy-2-methyl-4-(2,4,5-trimethyl-3,6-dioxocyclohexa-1,4-dienyl)butanamide]
not listed: [5]
< 0.1 µM: all other assays above

CC1=C(C)C(=O)C(CCC(C)(O)C(=O)NCCN(C)C)=C(C)C1=O (stereo not shown) [Example 37, N-(2-(Dimethylamino)ethyl)-2-hydroxy-2-methyl-4-(2,4,5-trimethyl-3,6-dioxocyclohexa-1,4-dienyl)butanamide]
< 0.1 µM: all assays above

CC1=C(C)C(=O)C(CCC(C)(O)C(=O)NCCCN(C)C)=C(C)C1=O (stereo not shown) [Example 40, N-(3-(Dimethylamino)propyl)-2-hydroxy-2-methyl-4-(2,4,5-trimethyl-3,6-dioxocyclohexa-1,4-dienyl)butanamide]
< 0.1 µM: [1] | [2] | [4]
